Test results: US20060069132A1, “Azolecarboxamide herbicides” (priority 2004, published 2006)

How the values were obtained:
[1] = system: corn; test: Test B pre-/postemergence herbicide test; type: in vivo, Zea mays; conditions: for Corn plant response rating: postemergence
How it was run: (§1)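 Seeds were planted and treated preemergence with compounds formulated in a non-phytotoxic solvent mixture containing surfactant, while plants at the 1- to 4-leaf stage (2 to 18 cm) received postemergence sprays. Flooded paddy plants were grown to the 2-leaf stage. After 13 to 15 days in a greenhouse, injury was visually rated 0–100 against untreated controls.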

[2] = system: pigweed; test: Test B pre-/postemergence herbicide test; type: in vivo, Amaranthus retroflexus; conditions: for Pigweed plant response rating: postemergence
How it was run: as §1

[3] = system: small flower umbrella sedge; test: Test B flooded paddy test; type: in vivo, Cyperus difformis; conditions: 1000 g ai/ha, scale 0 to 100 (0 no effect, 100 complete control)
How it was run: (§2)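 Treated at 2-leaf (paddy) or 1–4-leaf, 2–18 cm (postemergence); greenhouse 13–15 d; visual score vs control, 0 none to 100 complete control; dash = not tested.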

[4] = system: lambsquarters; test: Test B pre-/postemergence herbicide test; type: in vivo, Chenopodium album; conditions: for Lambsquarters plant response rating: postemergence
How it was run: as §1

[5] = system: large crabgrass; test: Test B pre-/postemergence herbicide test; type: in vivo, Digitaria sanguinalis; conditions: for Crabgrass, Large plant response rating: postemergence
How it was run: as §1

[6] = system: rice; test: Test B flooded paddy test; type: in vivo, Oryza sativa; conditions: 1000 g ai/ha, scale 0 to 100 (0 no effect, 100 complete control)
How it was run: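 Visual ratings, 0 (no effect) to 100 (complete control), made versus controls after 13–15 d greenhouse. Paddy plants treated at 2-leaf stage; postemergence plants at 1- to 4-leaf stage, 2–18 cm tall.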

[7] = system: barnyardgrass; test: Test B pre-/postemergence herbicide test; type: in vivo, Echinochloa crus-galli; conditions: for Barnyardgrass plant response rating: postemergence, scale 0 (no effect) to 100 (complete control)
How it was run: (§3)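 Herbicidal effect was judged by eye on a 0–100 scale after plants stood 13 to 15 days in the greenhouse following pre- or postemergence treatment with surfactant-containing formulations.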

[8] = system: barnyardgrass; test: Test B flooded paddy test; type: in vivo, Echinochloa crus-galli; conditions: 1000 g ai/ha, scale 0 to 100 (0 no effect, 100 complete control)
How it was run: as §2

[9] = system: rice; test: Test C flooded paddy test; type: in vivo, Oryza sativa
How it was run: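 Plants were grown to the 1- to 4-leaf stage (2–18 cm) and then treated postemergence, or grown to the 2-leaf stage for the flooded paddy test. They were held in a greenhouse for 12 to 14 days and then scored by eye against controls, where 0 is no effect and 100 is complete control.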

[10] = system: giant foxtail; test: Test B pre-/postemergence herbicide test; type: in vivo, Setaria faberi; conditions: for Foxtail, Giant plant response rating: postemergence
How it was run: as §1

[11] = system: cocklebur; test: Test B pre-/postemergence herbicide test; type: in vivo, Xanthium strumarium; conditions: postemergence, visual rating, scale 0 (no effect) to 100 (complete control)
How it was run: as §3

[12] = system: wild oat; test: Test B postemergence herbicide test; type: in vivo, Avena fatua; conditions: postemergence
How it was run: (§4)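 Formulated test chemicals went onto postemergence plants measuring 2 to 18 cm, at one to four leaves. For the paddy assay, species had reached two leaves. Scoring took place 13–15 days later by eye, relative to untreated plants, using 0 for no effect up to 100 for full control.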

[13] = system: Surinam grass; test: Test B pre-/postemergence herbicide test; type: in vivo, Urochloa decumbens; conditions: for Surinam Grass plant response rating: postemergence
How it was run: as §1

[14] = system: smallflower umbrella sedge; test: Test C flooded paddy test; type: in vivo, Cyperus difformis
[15] = system: velvetleaf; test: Test B pre-/postemergence herbicide test; type: in vivo, Abutilon theophrasti; conditions: for Velvetleaf plant response rating: postemergence
How it was run: as §1

[16] = system: morningglory; test: Test B pre-/postemergence herbicide test; type: in vivo, Ipomoea coccinea; conditions: for Morningglory plant response rating: postemergence
How it was run: as §3

[17] = system: rice; test: Test B pre-/postemergence herbicide test; type: in vivo, Oryza sativa; conditions: 0 = no effect, 100 = complete control, preemergence
How it was run: as §1

[18] = system: blackgrass; test: Test B postemergence herbicide test; type: in vivo, Alopecurus myosuroides; conditions: postemergence, visual rating, scale 0 (no effect) to 100 (complete control)
How it was run: as §2

[19] = system: ducksalad; test: Test B flooded paddy test; type: in vivo, Heteranthera limosa; conditions: 1000 g ai/ha, scale 0 to 100 (0 no effect, 100 complete control)
How it was run: as §2

[20] = system: ducksalad; test: Test C flooded paddy test; type: in vivo, Heteranthera limosa
[21] = system: barnyardgrass; test: Test C flooded paddy test; type: in vivo, Echinochloa crus-galli
How it was run: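 Greenhouse test with a 12–14 day hold after application and visual comparison with controls. Emerged plants were 1- to 4-leaf stage (2–18 cm) when sprayed postemergence, and the paddy barnyardgrass was at 2 leaves under flooded conditions. 100 = complete control.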

[22] = system: wheat; test: Test B postemergence herbicide test; type: in vivo, Triticum aestivum; design: key to Wheat plant response rating: 0 = no effect, 100 = complete control; conditions: postemergence
How it was run: as §4

[23] = 125 g ai/ha, 0 = no effect, 100 = complete control, preemergence
[24] = 500 g ai/ha, visual rating, 0 = no effect, 100 = complete control, preemergence
[25] = 125 g ai/ha, visual rating, scale 0 (no effect) to 100 (complete control)
[26] = 500 g ai/ha, scale 0 to 100, 0 is no effect, 100 is complete control
[27] = 125 g ai/ha, scale 0 to 100 (0 no effect, 100 complete control)
[28] = 250 g ai/ha, scale of 0 to 100, 0 is no effect, 100 is complete control
[29] = 500 g ai/ha, visual rating after 12 to 14 days, scale 0 to 100 (0 no effect, 100 complete control)

In the case of `CCN(C)C(=O)c1cncc(NC(=O)c2cc(C(C)(C)C)nn2CC)c1` [Compound 263], the “Corn plant response rating (0 to 100 scale)” value [1, 23] is reported as 0, the “Plant response rating, Corn” value [1, 24] is reported as 0 and the “Corn plant response rating” value [1, 25] is reported as 0. For the same compound, the “Corn plant response rating” value [1, 26] was 10, the “Pigweed plant response rating (0 to 100 scale)” value [2, 23] was 80 and the “Plant response rating, Pigweed” value [2, 24] was 100. The “Pigweed plant response rating” value [2, 25] was 60, the “Pigweed plant response rating” value [2, 26] was 90 and the “Sedge, Umbrella plant response rating” value [3] was 80. The “Lambsquarters plant response rating (0 to 100 scale)” value [4, 23] was 70, the “Plant response rating, Lambsquarters” value [4, 24] was 100 and the “Lambsquarters plant response rating” value [4, 25] was 70. The “Lambsquarters plant response rating” value [4, 26] was 80, the “Crabgrass, Large plant response rating (0 to 100 scale)” value [5, 23] was 10 and the “Plant response rating, Crabgrass, Large” value [5, 24] was 60. For the same compound, the “Crabgrass, Large plant response rating” value [5, 25] was 10, the “Crabgrass, Large plant response rating” value [5, 26] was 20 and the “Rice plant response rating” value [6] was 70. The “Barnyardgrass plant response rating (0 to 100 scale)” value [7, 23] was 10, the “Plant response rating, Barnyardgrass” value [7, 24] was 40 and the “Barnyardgrass plant response rating” value ([7]; 125 g ai/ha, visual rating) was 0. For the same compound, the “Barnyardgrass plant response rating” value ([7]; 500 g ai/ha, visual rating) was 10, the “Barnyardgrass plant response rating” value [8] was 60 and the “Rice plant response rating” value ([9]; 62 g ai/ha, scale 0 to 100) was 0. The “Rice plant response rating” value [9, 27] was 0, the “Rice plant response rating” value [9, 28] was 0 and the “Plant response rating, Rice” value [9, 29] was 25. For the same compound, the “Foxtail, Giant plant response rating (0 to 100 scale)” value [10, 23] was 0, the “Plant response rating, Foxtail, Giant” value [10, 24] was 20 and the “Foxtail, Giant plant response rating” value [10, 25] was 0. The “Foxtail, Giant plant response rating” value [10, 26] was 20, the “Cocklebur plant response rating” value ([11]; 125 g ai/ha) was 0 and the “Cocklebur plant response rating” value ([11]; 500 g ai/ha) was 10. For the same compound, the “Oat, Wild plant response rating” value [12, 25] was 10, the “Oat, Wild plant response rating” value [12, 26] was 20 and the “Surinam Grass plant response rating (0 to 100 scale)” value [13, 23] was 10. For the same compound, the “Plant response rating, Surinam Grass” value [13, 24] was 30, the “Surinam Grass plant response rating” value [13, 25] was 10 and the “Surinam Grass plant response rating” value [13, 26] was 10. For the same compound, the “Sedge, Umbrella plant response rating” value ([14]; 62 g ai/ha, scale 0 to 100) was 0, the “Sedge, Umbrella plant response rating” value [14, 27] was 0 and the “Sedge, Umbrella plant response rating” value [14, 28] was 30. The “Plant response rating, Sedge, Umbrella” value [14, 29] was 50, the “Velvetleaf plant response rating (0 to 100 scale)” value [15, 23] was 10 and the “Plant response rating, Velvetleaf” value [15, 24] was 90. The “Velvetleaf plant response rating” value [15, 25] was 20, the “Velvetleaf plant response rating” value [15, 26] was 20 and the “Morningglory plant response rating (0 to 100 scale)” value [16, 23] was 0. For the same compound, the “Plant response rating, Morningglory” value [16, 24] was 0, the “Morningglory plant response rating” value [16, 25] was 0 and the “Morningglory plant response rating” value [16, 26] was 20. For the same compound, the “Rice plant response rating (0 to 100 scale)” value ([17]; 125 g ai/ha) was 0, the “Plant response rating, Rice” value ([17]; 500 g ai/ha, visual rating) was 10 and the “Blackgrass plant response rating” value ([18]; 125 g ai/ha) was 10. For the same compound, the “Blackgrass plant response rating” value ([18]; 500 g ai/ha) was 20, the “Ducksalad plant response rating” value [19] was 90 and the “Ducksalad plant response rating” value ([20]; 62 g ai/ha, scale 0 to 100) was 0. The “Ducksalad plant response rating” value [20, 27] was 0, the “Ducksalad plant response rating” value [20, 28] was 75 and the “Plant response rating, Ducksalad” value [20, 29] was 90. For the same compound, the “Barnyardgrass plant response rating” value ([21]; 62 g ai/ha, scale 0 to 100 (0 no effect, 100 complete control)) was 0, the “Barnyardgrass plant response rating” value [21, 27] was 0 and the “Barnyardgrass plant response rating” value [21, 28] was 0. For the same compound, the “Plant response rating, Barnyardgrass” value [21, 29] was 0, the “Wheat plant response rating” value [22, 25] was 10 and the “Wheat plant response rating” value [22, 26] was 20.
